Experimental data taken from US10709704B2, “Treating neural disease with tyrosine kinase inhibitors” (GEORGETOWN UNIVERSITY, priority 2012, dated 2020).

How the values were obtained:
Type in all cases: in vivo, mouse
[1] = test system: lentiviral Aβ1-42-injected wild type mice; assay: Morris water maze, lentiviral Aβ1-42 wild type mice; conditions: Nilotinib
Experimental: All animals were pre-trained (trials) to swim for 90 seconds in a water maze containing a platform submerged in water (invisible) for 4 consecutive days once a day. The pretraining trials “teach” the swimming animals that to “escape”, they must find the hidden platform, and stay on it. The water maze “test” was performed on day 5, (40), when the platform was removed and mice have to swim and find it, thus assessing acquisition and retention. All parameters, including distance travelled to reach platform, speed to get to the platform, latency or time spent on platform, and platform entry were digitally recorded on a computer and analyzed by a blind investigator.
The Morris water maze test was performed after 4 days of training trials in which the platform was placed in the SE corner and mice were initially placed in the NW corner of the pool.

Aβ1-42 parkin−/− mice = assay: Novel object recognition, Aβ1-42 parkin−/− mice; conditions: Aβ1-42 parkin−/− mice with or without Nilotinib
Experimental: Mice were placed individually in a 22×32×30 cm testing chamber for a 5 min habituation interval and returned to their home cages. Thirty minutes later mice were placed in the testing chamber for 10 min with two identical objects (acquisition session), then returned to their home cages and […] placed back in the testing chamber in the presence with one of the original objects and one novel object of the same size but of a different color and shape (recognition session). Sessions were video recorded. Time spent exploring the objects were scored by blind observer. The recognition index was calculated as (time exploring one of the objects/time exploring both objects)×100 for acquisition session, and (time exploring new object/time exploring both familiar and novel objects)×100 for the recognition session. Statistical calculations to estimate differences between sessions were performed with a pairwise t-test.
These experiments were repeated in 1 year old Tg-APP mice and age-matched control (C57BL/6).

[2] = test system: autophagic vacuoles and lysosomes; assay: Subcellular fractionation and ELISA, lentiviral Aβ1-42 mice
Experimental: Histograms show Aβ1-42 in subcellular fractions, including autophagic vacuole-10 (AV-10; phagophores+autophagosomes), AV-20 (autophagosomes) and lysosomes. […] Brain tissues were fractionated to isolate AVs and human specific ELISA was performed to determine protein contents. […] N=5 animals per treatment.
Brain tissues were fractionated to isolate AVs and human specific ELISA was performed to determine protein contents.
(§1) 0.5 g of Frozen human or animal brains were homogenized at low speed (Cole-Palmer homogenizer, LabGen 7, 115 Vac) in 1×STEN buffer and centrifuged at 1,000 g for 10 minutes to isolate the supernatant from the pellet. The pellet was re-suspended in 1×STEN buffer and centrifuged once to increase the recovery of lysosomes. The pooled supernatants were then centrifuged at 100,000 rpm for 1 hour at 4° C. to extract the pellet containing autophagic vacuoles (AVs) and lysosomes. The pellet was then re-suspended in 10 ml (0.33 g/ml) 50% Metrizamide and 10 ml in cellulose nitrate tubes. A discontinuous Metrizamide gradient was constructed in layers from bottom to top as follows: 6 ml of pellet suspension, 10 ml of 26%; 5 ml of 24%; 5 ml of 20%; and 5 ml of 10% Metrizamide (Marzella et al., 1982). After centrifugation at 10,000 rpm for 1 hour at 4° C., the fraction floating on the 10% layer (Lysosome) and the fractions banding at the 24%/20% (AV 20) and the 20%/10% (AV10) Metrizamide inter-phases were collected by a syringe and examined.
Animal brains were homogenized at low speed (Cole-Palmer homogenizer, LabGen 7, 115 Vac) in 1×STEN buffer and centrifuged at 1,000 g for 10 minutes to isolate the supernatant from the pellet. The pellet was re-suspended in 1×STEN buffer and centrifuged once to increase the recovery of lysosomes. The pooled supernatants were then centrifuged at 100.000 rpm for 1 hour at […] to extract the pellet containing autophagic vacuoles (AVs) and lysosomes. The pellet was then re-suspended in 10 ml (0.33 g/ml) 50% Metrizamide and 10 ml in cellulose nitrate tubes. […]

[3] = test system: molecular markers of autophagy; assay: Western blot of autophagy markers, lentiviral α-Synuclein mice; conditions: Nilotinib 10 mg/kg IP daily 3 weeks
From the text: (§2) Rabbit polyclonal (1:1000) tubulin (Thermo Scientific) was used.

[4] = test system: Aβ1-42 plaques and intracellular Aβ1-42; assay: Plaque and intracellular Aβ1-42 staining, lentiviral Aβ1-42 parkin−/− mice
Experimental: Immunohistochemistry was performed on 20 micron-thick 4% paraformaldehyde (PFA) fixed cortical brain sections. Aβ1-42 was probed (1:200) with rabbit polyclonal specific anti-Aβ1-42 antibody (Zymed) that recognizes a.a.1-42, and (1:200) mouse monoclonal antibody (4G8) that recognizes amino acid 17-24 (Covance) and counterstained with DAPI. Parkin was immunoprobed (1:200) with mouse anti-parkin (PRK8) antibody that recognizes amino acid 399-465 (Signet Labs, Dedham, Mass.) and rabbit polyclonal (1:200) anti-parkin (AB5112) antibody that recognizes amino acid 305-622 (Millipore) and counterstained with DAPI. Mouse monoclonal (6E10) antibody (1:100) with DAB were used (Covance) and thioflavin-S was performed according to manufacturer's instructions (Sigma).
Stereological methods were applied by a blinded investigator using unbiased stereology analysis (Stereologer, Systems Planning and Analysis, Chester, Md.) as described in (20,36).

[5] = test system: molecular markers of autophagy; assay: Western blot of autophagy markers, A53T mice; conditions: daily IP Nilotinib 3 weeks
From the text: as §2

[6] = test system: autophagic vacuoles and lysosomes; assay: Subcellular fractionation (AV-10, AV-20, lysosome) and ELISA, Tg-APP mice
Experimental: Histograms show Aβ1-42 in subcellular fractions, including autophagic vacuole-10 (AV-10; phagophores+autophagosomes), AV-20 (autophagosomes) and lysosomes. […] Brain tissues were fractionated to isolate AVs and human specific ELISA was performed to determine protein contents. N=5 animals per treatment.
as §1
as §1, with “Animal” for “0.5 g of Frozen human or animal”, “100.000” for “100,000”, “[…]” for “4°”, “Metrizamide.” for “Metrizamide (Marzella et al., 1982).”, “100,000” for “10,000”, “40 C,” for “4° C.,”

[7] = lentiviral Aβ1-42 mice, IP 10 mg/kg Nilotinib or 5 mg/Kg Bosutinib daily 3 weeks
[8] = IP 10 mg/kg Nilotinib or 5 mg/Kg Bosutinib daily 3 weeks

## Cc1cn(-c2cc(NC(=O)c3ccc(C)c(Nc4nccc(-c5cccnc5)n4)c3)cc(C(F)(F)F)c2)cn1 [Nilotinib]
[1]; Aβ1-42-injected wild type mice
  time spent in NW quadrant: back to the level observed in control mice
[1]; Aβ1-42 wild type mice
  improved time spent in SE compared to DMSO: 61%
  improved time spent in SE compared to control: 26%
  number of entries into SE (platform entry): reversed the number of entries back to control
Aβ1-42 parkin−/− mice
  novel object recognition learning: did not learn
[2]; [7]
  autophagic clearance of Aβ1-42 (deposition in AV-20 and lysosome): enhances autophagic clearance
  autophagic clearance of p-Tau ser 396 (deposition in AV-20 and lysosome): enhances autophagic clearance
[2]; wild type or Tau−/− mice, lentiviral Aβ1-42, 10 mg/kg Nilotinib or 5 mg/Kg Bosutinib daily 3 weeks
  autophagic clearance of Aβ1-42 (deposition in AV-20 and lysosomes): enhances autophagic clearance
[3]
  decrease in LC3-II compared to LC3-I: 39%
  decrease in LC3-II compared to MAP-2: 41%
  decrease in P62: 69%
  increase in Atg-5 compared to actin: 43%
  increase in Atg-12 compared to actin: 58%
  increase in beclin-1 compared to actin: 62%
[4]; Aβ1-42 parkin−/− mice + Nilotinib (DMSO 85 μm)
  plaque size: 79 μm
[4]; Aβ1-42 parkin−/− mice + Nilotinib (DMSO N=14566)
  Aβ1-42 positive cells (stereological counting): 13250
[4]; Aβ1-42 parkin−/− mice, Nilotinib
  plaque load: did not reduce plaque load
[5]
  LC3-II level: completely disappeared
  increase in Atg-5 compared to DMSO: 29%
  increase in beclin-1 compared to DMSO: 69%
[6]; [8]
  autophagic clearance of Aβ1-40 (deposition in AV-20 and lysosome): enhances autophagic clearance
  autophagic clearance of Aβ1-42 (deposition in AV-20 and lysosome): enhances autophagic clearance
  autophagic clearance of p-Tau ser 396 (deposition in AV-20 and lysosome): enhances autophagic clearance
[6]; IP 10 mg/kg Nilotinib or 5 mg/kg Bosutinib daily 3 weeks
  autophagic clearance of parkin (deposition in AV-20 and lysosome): enhances autophagic clearance
